# Earlier results, collected in US12290522B2, “Method of treating amyotrophic lateral sclerosis” (Woolsey Pharmaceuticals, Inc., priority 2021, dated 2025).
# Details: in vivo; 1-hydroxy metabolite; Shibuya 2001; cited from earlier work
compound,measurement,value
O=S(=O)(c1cccc2c(O)nccc12)N1CCCNCC1 [M3],half-life,about 8 hours
